Data from patent publication EP3262942A1, “SELENODIARYLS FOR USE AS MICROBICIDE OR AS MEDICINE” (Evonik Degussa GmbH, priority 2016, dated 2018).

Key:
M. grisea H2O = assay: microbe, parasite or virus in culture; format: cell-based, Magnaporthe grisea; details: Pyricularia grisea, H2O, 24 h, read-out: Aktivität gegenüber M. grisea H2O
Candida albicans = assay: Growth test in microtiter plates, HA medium, 24 h, visual evaluation; format: cell-based; set-up: key: +: kein Wachstum im Vergleich zur Wachstumskontrolle; -: Wachstum wie Wachstumskontrolle
Botrytis cinerea = assay: microbe, parasite or virus in culture; format: cell-based; details: Botrytis cinerea, 24 h, read-out: Aktivität gegenüber B. cinerea
M. grisea CM = assay: microbe, parasite or virus in culture; format: cell-based, Magnaporthe grisea; details: Pyricularia grisea, 24 h, read-out: Aktivität gegenüber M. grisea CM
Paecilomyces variotii = assay: Growth test in microtiter plates, HA medium, 24 h, visual evaluation; format: cell-based; set-up: key: +: kein Wachstum im Vergleich zur Wachstumskontrolle; -: Wachstum wie Wachstumskontrolle
Mucor miehei = assay: as above; format: cell-based; set-up: key to Aktivität gegenüber M. miehei: +: kein Wachstum im Vergleich zur Wachstumskontrolle; -: Wachstum wie Wachstumskontrolle
Penicillium notatum = assay: as above; format: cell-based; set-up: key: +: kein Wachstum im Vergleich zur Wachstumskontrolle; -: Wachstum wie Wachstumskontrolle
P. infestans = assay: microbe, parasite or virus in culture; format: cell-based, Phytophthora infestans; details: for inhibition of growth at 5 µg/mL / inhibition of growth at 10 µg/mL / inhibition of growth at 25 µg/mL / inhibition of growth at 50 µg/mL: Phytophthora infestans, 24 h, read-out: Aktivität gegenüber P. infestans
Lepidium sativum = assay: Crop plant growth test, seeds on filter discs, 4 days, visual evaluation; format: in vivo
Method: (§1) Testsubstanzen und Kontrollen werden auf Filterrondellen in Mikrotiterplatten (48 well) vorgelegt und das verwendete Lösungsmittel (DMSO) über Lyophilisation entfernt. Anschließend werden ca. 12 Samen pro Vertiefung (Setaria italical Lepidium sativum) zugeben, mit 200 µl sterilem Leitungswasser pro Vertiefung versetzt, mit einem Deckel versehen und in einer feuchten Kammer für 4 Tage im Pflanzenbrutschrank inkubiert (16h-Licht-8h-Dunkel-Rhythmus). Die Auswertung des Tests erfolgt optisch (+: mind. 75 % Wachstumshemmung im Vergleich zur Kontrolle, -: weniger als 75 % Wachstumshemmung im Vergleich zur Kontrolle.

Setaria italica = assay: as above; format: in vivo
Method: as §1

Row | Structure (SMILES) | inhibition of growth at 5 µg/mL (M. grisea H2O) [%] | inhibition of growth at 10 µg/mL (M. grisea H2O) [%] | inhibition of growth at 25 µg/mL (M. grisea H2O) [%] | inhibition of growth at 50 µg/mL (M. grisea H2O) [%] | Aktivität gegenüber C. albicans (Candida albicans; 10µg/mL) | Aktivität gegenüber C. albicans (Candida albicans; 50µg/mL) | inhibition of growth at 5 µg/mL (Botrytis cinerea) [%] | inhibition of growth at 10 µg/mL (Botrytis cinerea) [%] | inhibition of growth at 25 µg/mL (Botrytis cinerea) [%] | inhibition of growth at 50 µg/mL (Botrytis cinerea) [%] | inhibition of growth at 5 µg/mL (M. grisea CM) [%] | inhibition of growth at 10 µg/mL (M. grisea CM) [%] | inhibition of growth at 25 µg/mL (M. grisea CM) [%] | inhibition of growth at 50 µg/mL (M. grisea CM) [%] | Aktivität gegenüber P. variotii (Paecilomyces variotii; 10µg/mL) | Aktivität gegenüber P. variotii (Paecilomyces variotii; 50µg/mL) | Aktivität gegenüber M. miehei (Mucor miehei; 10µg/mL) | Aktivität gegenüber M. miehei (Mucor miehei; 50µg/mL) | Aktivität gegenüber P. notatum (Penicillium notatum; 10µg/mL) | Aktivität gegenüber P. notatum (Penicillium notatum; 50µg/mL) | further results
1 | Cc1cc(C)c(O)c([Se]c2c(C)c(C)cc(C)c2O)c1C [Verbindung 17, Bis(2-hydroxy-3,5,6-trimethylphenyl)selen] | 0 to 25 | 0 to 25 | 0 to 25 | 0 to 25 | - | - | 0 to 25 | 0 to 25 | 0 to 25 | 0 to 25 | 0 to 25 | 0 to 25 | 50 to 75 | 50 to 75 | - | - | - | - | - | - | inhibition of growth at 5 µg/mL (P. infestans): 0 to 25%; inhibition of growth at 10 µg/mL (P. infestans): 25 to 50%; inhibition of growth at 25 µg/mL (P. infestans): 25 to 50%; inhibition of growth at 50 µg/mL (P. infestans): 25 to 50%; Aktivität gegenüber Nutzpflanzen: L. sativum (Lepidium sativum; 10µg/R): - (weniger als 75 % Wachstumshemmung im Vergleich zur Kontrolle); Aktivität gegenüber Nutzpflanzen: L. sativum (Lepidium sativum; 20µg/R): - (weniger als 75 % Wachstumshemmung im Vergleich zur Kontrolle); Aktivität gegenüber Nutzpflanzen: L. sativum (Lepidium sativum; 50µg/R): - (weniger als 75 % Wachstumshemmung im Vergleich zur Kontrolle); Aktivität gegenüber Nutzpflanzen: S. italica (Setaria italica; 10µg/R): - (weniger als 75 % Wachstumshemmung im Vergleich zur Kontrolle); Aktivität gegenüber Nutzpflanzen: S. italica (Setaria italica; 20µg/R): - (weniger als 75 % Wachstumshemmung im Vergleich zur Kontrolle); Aktivität gegenüber Nutzpflanzen: S. italica (Setaria italica; 50µg/R): + (mind. 75 % Wachstumshemmung im Vergleich zur Kontrolle)
2 | Cc1c(Cl)cc(C(C)C)c(O)c1[Se]c1c(C)c(Cl)cc(C(C)C)c1O [Verbindung 21, Bis(3-chlor-6-hydroxy-5-isopropyl-2-methylphenyl)selen] | 25 to 50 | > 75 | > 75 | > 75 | - | - | 0 to 25 | 0 to 25 | 0 to 25 | 0 to 25 | 50 to 75 | > 75 | > 75 | > 75 | - | - | - | - | - | - | inhibition of growth at 5 µg/mL (P. infestans): 0 to 25%; inhibition of growth at 10 µg/mL (P. infestans): 0 to 25%; inhibition of growth at 25 µg/mL (P. infestans): 0 to 25%; inhibition of growth at 50 µg/mL (P. infestans): 0 to 25%; Wirksamkeit gegenüber P. infestans (P. infestans; […]): keine Wirkung; Aktivität gegenüber Nutzpflanzen: L. sativum (Lepidium sativum; 10µg/R): - (weniger als 75 % Wachstumshemmung im Vergleich zur Kontrolle); Aktivität gegenüber Nutzpflanzen: L. sativum (Lepidium sativum; 20µg/R): - (weniger als 75 % Wachstumshemmung im Vergleich zur Kontrolle); Aktivität gegenüber Nutzpflanzen: L. sativum (Lepidium sativum; 50µg/R): - (weniger als 75 % Wachstumshemmung im Vergleich zur Kontrolle); Aktivität gegenüber Nutzpflanzen: S. italica (Setaria italica; 10µg/R): - (weniger als 75 % Wachstumshemmung im Vergleich zur Kontrolle); Aktivität gegenüber Nutzpflanzen: S. italica (Setaria italica; 20µg/R): - (weniger als 75 % Wachstumshemmung im Vergleich zur Kontrolle); Aktivität gegenüber Nutzpflanzen: S. italica (Setaria italica; 50µg/R): - (weniger als 75 % Wachstumshemmung im Vergleich zur Kontrolle)
